Assay results: patent US20260258048A1, “LACTAM-CONTAINING IMIDAZOPYRIDAZINE IL-17 INHIBITOR COMPOUNDS” (Janssen Pharmaceutica NV, priority 2023, published 2026)
pIC50: −log10 of the molar value.

Tests used:
[1] = tested on: IL-17A-induced G-CSF production in human normal keratinocyte (NHK); assay: NHK assay: IL-17A-induced G-CSF production in normal human keratinocytes; type: cell-based; conditions: Homo sapiens, Keratinocyte, 24 h, IL-17A 5 ng/mL, class of the average IC50 where tested more than once
How it was run: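 Adult keratinocytes at 3000-4000 cells/well; recombinant human IL-17A pre-incubated 1 h at rt with titrated compound, then added to cells (final 5 ng/mL IL-17A, 0.2% DMSO, 5% FBS) for 24 h at 37 °C. Supernatant G-CSF quantified by HTRF against a standard curve to give IC50; viability checked by CellTiter-Glo versus DMSO.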

[2] = biological target: IL-17A(FLAG-tagged): IL-17RA(His-tagged) (Homo sapiens, UniProt Q16552, K93Q); assay: IL-17A(FLAG-tagged): IL-17RA(His-tagged) binding disruption Eu-HTRF assay; conditions: class of the average IC50 where tested more than once
Description: IL-17A(FLAG-tagged): IL-17RA(His-tagged) binding disruption Eu-HTRF assay An antibody directed against the FLAG tag of IL-17A (SEQ ID NO: 1) is labeled with the HTRF donor chromophore (Europium-cryptate). IL-17A is present as a dimer that is “locked into” this quaternary structure due to the formation of loop-spanning intramolecular disulfide bridges. The construct of IL-17RA used in the assay excludes the […] portion of the receptor and is fused to a C-terminal 10×His tag (SEQ ID NO:2). An antibody directed against the His tag of the IL-17RA chimera is labeled with the HTRF acceptor chromophore (“D2”). The fluorescence-resonance energy transfer (FRET) depends on the vicinity of the donor chromophore to the acceptor, and interruption of the binding between the IL-17A and IL-17RA causes the reduction/loss of FRET. Therefore, this assay allows to evaluate the compound effect on the binding IL-17A and IL-17RA by monitoring the fluorescence intensity of donor vs acceptor. The assay is run as described below.
40 nl of 2-fold serial diluted compound solution for total 22 dilution points is added into each well of a 1536-well, white, low-volume, non-binding plate (Greiner #782904), then 2 μl of FLAG tagged IL-17A at 2× final concentration (1 μM) in solution of PBS+0.01% Triton-X100 is added to each well. The assay plate is briefly centrifuged then incubated for 1 h at rt. A mixed solution is prepared containing 2×5 nM 10HIS×IL-17RA, 2×2.5 nM Eu-anti-FLAG (CISBIO), 2×5 nM D2-anti-HIS (CISBIO) in PBS+0.01% Triton-X100+200 mM Potassium Fluoride (Sigma 60238) and 2 μl of mix is added to each well of the assay plate. The plate is briefly centrifuged then incubated for 2 h at rt. The HTRF intensities at the wavelength of donor (615 nm) and acceptor (665 nm) are measured using BMG Pherastar. The ratio between intensities at two wavelengths is calculated and plotted against the compound concentration and the data is fitted to a one-site competition model to yield IC50 of the compound.

Sequence of UniProt Q16552 (Q16552 with tags, fused parts or gaps K93Q): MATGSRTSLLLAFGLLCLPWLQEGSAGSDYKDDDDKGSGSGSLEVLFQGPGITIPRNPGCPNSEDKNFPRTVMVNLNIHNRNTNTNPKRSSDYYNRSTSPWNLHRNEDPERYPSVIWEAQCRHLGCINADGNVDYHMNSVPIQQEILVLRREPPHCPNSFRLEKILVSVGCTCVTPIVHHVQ

Structure (SMILES): O=C(N[C@H](c1cn2ncc([C@@H](O)[C@H]3C[C@@H](C(F)(F)F)NC3=O)cc2n1)C1CCC(F)(F)CC1)c1nonc1C1CC1 (relative stereo) [Example 73]
- pIC50 [1]: 5.40 to 6.40
- pIC50 [2]: 5.40 to 6.40

Structure (SMILES): O=C(N[C@H](c1cn2ncc([C@H](O)[C@@H]3C[C@@H](C(F)(F)F)NC3=O)cc2n1)C1CCC(F)(F)CC1)c1nonc1C1CC1 (relative stereo) [Example 75, 4-Cyclopropyl-N—((S)-(4,4-difluorocyclohexyl)(7-((R*)-hydroxy((3S*,5S*)-2-oxo-5-(trifluoromethyl)pyrrolidin-3-yl)methyl)imidazo[1,2-b]pyridazin-2-yl)methyl)-1,2,5-oxadiazole-3-carboxamide]
- pIC50 [1]: > 6.40
- pIC50 [2]: > 6.40

Structure (SMILES): O=C(N[C@H](c1cn2ncc([C@H](O)[C@H]3C[C@@H](C(F)(F)F)NC3=O)cc2n1)C1CCC(F)(F)CC1)c1nonc1C1CC1 (relative stereo) [Example 77, 4-Cyclopropyl-N—((S)-(4,4-difluorocyclohexyl)(7-((R*)-hydroxy((3R*,5S*)-2-oxo-5-(trifluoromethyl)pyrrolidin-3-yl)methyl)imidazo[1,2-b]pyridazin-2-yl)methyl)-1,2,5-oxadiazole-3-carboxamide]
- pIC50 [1]: 5.40 to 6.40
- pIC50 [2]: < 5.40

Structure (SMILES): C[C@@H](c1cnn2cc([C@@H](NC(=O)c3nonc3C3CC3)C3CCC(F)(F)CC3)nc2c1)[C@H]1C[C@@H](C(F)(F)F)NC1=O (relative stereo) [Example 78, 4-Cyclopropyl-N—((S)-(4,4-difluorocyclohexyl)(7-((R*)-1-((3R*,5S)-2-oxo-5-(trifluoromethyl)pyrrolidin-3-yl)ethyl)imidazo[1,2-b]pyridazin-2-yl)methyl)-1,2,5-oxadiazole-3-carboxamide]
- pIC50 [1]: < 5.40
- pIC50 [2]: < 5.40

Structure (SMILES): C[C@H](c1cnn2cc([C@@H](NC(=O)c3nonc3C3CC3)C3CCC(F)(F)CC3)nc2c1)[C@H]1C[C@@H](C(F)(F)F)NC1=O (relative stereo) [Example 79, 4-Cyclopropyl-N—((S)-(4,4-difluorocyclohexyl)(7-((S*)—1-((3R*,5S)-2-oxo-5-(trifluoromethyl)pyrrolidin-3-yl)ethyl)imidazo[1,2-b]pyridazin-2-yl)methyl)-1,2,5-oxadiazole-3-carboxamide]
- pIC50 [1]: > 6.40
- pIC50 [2]: > 6.40

Structure (SMILES): C[C@H](c1cnn2cc([C@@H](NC(=O)c3nonc3C3CC3)C3CCC(F)(F)CC3)nc2c1)[C@@H]1C[C@@H](C(F)(F)F)NC1=O (relative stereo) [Example 81, 4-Cyclopropyl-N—((S)-(4,4-difluorocyclohexyl)(7-((S*)-1-((3S*,5S)-2-oxo-5-(trifluoromethyl)pyrrolidin-3-yl)ethyl)imidazo[1,2-b]pyridazin-2-yl)methyl)-1,2,5-oxadiazole-3-carboxamide]
- pIC50 [1]: > 6.40
- pIC50 [2]: > 6.40

Structure (SMILES): C[C@H]1C[C@@H](Cc2cnn3cc([C@@H](NC(=O)c4nonc4C4CC4)C4CCC(F)(F)CC4)nc3c2)C(=O)N1 (relative stereo) [Example 82, 4-Cyclopropyl-N—((S)-(4,4-difluorocyclohexyl)(7-(((3R*,5S*)-5-methyl-2-oxopyrrolidin-3-yl)methyl)imidazo[1,2-b]pyridazin-2-yl)methyl)-1,2,5-oxadiazole-3-carboxamide]
- pIC50 [1]: < 5.40
- pIC50 [2]: 5.40 to 6.40

Structure (SMILES): C[C@H]1C[C@H](Cc2cnn3cc([C@@H](NC(=O)c4nonc4C4CC4)C4CCC(F)(F)CC4)nc3c2)C(=O)N1 (relative stereo) [Example 83, 4-Cyclopropyl-N—((S)-(4,4-difluorocyclohexyl)(7-(((3S*,5S*)-5-methyl-2-oxopyrrolidin-3-yl)methyl)imidazo[1,2-b]pyridazin-2-yl)methyl)-1,2,5-oxadiazole-3-carboxamide]
- pIC50 [1]: > 6.40
- pIC50 [2]: > 6.40

Structure (SMILES): C[C@@H]1C[C@H](Cc2cnn3cc([C@@H](NC(=O)c4nonc4C4CC4)C4CCC(F)(F)CC4)nc3c2)C(=O)N1 (relative stereo) [Example 85, 4-Cyclopropyl-N—((S)-(4,4-difluorocyclohexyl(7-(((3S*,5R*)-5-methyl-2-oxopyrrolidin-3-yl)methyl)imidazo[1,2-b]pyridazin-2-yl)methyl)-1,2,5-oxadiazole-3-carboxamide]
- pIC50 [1]: < 5.40
- pIC50 [2]: 5.40 to 6.40

Structure (SMILES): C[C@H]1CNC(=O)[C@H]1Cc1cnn2cc([C@@H](NC(=O)c3nonc3C3CC3)C3CCC(F)(F)CC3)nc2c1 (relative stereo) [Example 86, 4-Cyclopropyl-N—[(S)-(4,4-difluorocyclohexyl)-[7-[[(3S*,4R*)-4-methyl-2-oxo-pyrrolidin-3-yl]methyl]imidazo[1,2-b]pyridazin-2-yl]methyl]-1,2,5-oxadiazole-3-carboxamide]
- pIC50 [1]: < 5.40
- pIC50 [2]: 5.40 to 6.40

Structure (SMILES): C[C@@H]1CNC(=O)[C@@H]1Cc1cnn2cc([C@@H](NC(=O)c3nonc3C3CC3)C3CCC(F)(F)CC3)nc2c1 (relative stereo) [Example 88, 4-Cyclopropyl-N—[(S)-(4,4-difluorocyclohexyl)-[7-[[(3R*,4S*)-4-methyl-2-oxo-pyrrolidin-3-yl]methyl]imidazo[1,2-b]pyridazin-2-yl]methyl]-1,2,5-oxadiazole-3-carboxamide]
- pIC50 [1]: < 5.40
- pIC50 [2]: 5.40 to 6.40

Structure (SMILES): CC[C@@H]1C[C@H](Cc2cnn3cc([C@@H](NC(=O)c4nonc4C4CC4)C4CCC(F)(F)CC4)nc3c2)C(=O)N1 (relative stereo) [Example 89, 4-Cyclopropyl-N—[(S)-(4,4-difluorocyclohexyl)-[7-[[(3S*,5R*)-5-ethyl-2-oxo-pyrrolidin-3-yl]methyl]imidazo[1,2-b]pyridazin-2-yl]methyl]-1,2,5-oxadiazole-3-carboxamide]
- pIC50 [1]: < 5.40
- pIC50 [2]: > 6.40

Structure (SMILES): CC(C)[C@H]1C[C@H](Cc2cnn3cc([C@@H](NC(=O)c4nonc4C4CC4)C4CCC(F)(F)CC4)nc3c2)C(=O)N1 (relative stereo) [Example 93, 4-Cyclopropyl-N—[(S)-(4,4-difluorocyclohexyl)-[7-[[(3S*,5R*)-5-isopropyl-2-oxo-pyrrolidin-3-yl]methyl]imidazo[1,2-b]pyridazin-2-yl]methyl]-1,2,5-oxadiazole-3-carboxamide]
- pIC50 [1]: 5.40 to 6.40
- pIC50 [2]: 5.40 to 6.40

Structure (SMILES): CC(C)[C@H]1C[C@@H](Cc2cnn3cc([C@@H](NC(=O)c4nonc4C4CC4)C4CCC(F)(F)CC4)nc3c2)C(=O)N1 (relative stereo) [Example 94, 4-Cyclopropyl-N—[(S)-(4,4-difluorocyclohexyl)-[7-[[(3R*,5R*)-5-isopropyl-2-oxo-pyrrolidin-3-yl]methyl]imidazo[1,2-b]pyridazin-2-yl]methyl]-1,2,5-oxadiazole-3-carboxamide]
- pIC50 [1]: > 6.40
- pIC50 [2]: > 6.40

Structure (SMILES): CC(C)[C@@H]1C[C@@H](Cc2cnn3cc([C@@H](NC(=O)c4nonc4C4CC4)C4CCC(F)(F)CC4)nc3c2)C(=O)N1 (relative stereo) [Example 95, 4-Cyclopropyl-N—[(S)-(4,4-difluorocyclohexyl)-[7-[[(3R*,5S*)-5-isopropyl-2-oxo-pyrrolidin-3-yl]methyl]imidazo[1,2-b]pyridazin-2-yl]methyl]-1,2,5-oxadiazole-3-carboxamide]
- pIC50 [1]: < 5.40
- pIC50 [2]: 5.40 to 6.40

Structure (SMILES): CC(C)[C@@H]1C[C@H](Cc2cnn3cc([C@@H](NC(=O)c4nonc4C4CC4)C4CCC(F)(F)CC4)nc3c2)C(=O)N1 (relative stereo) [Example 96, 4-Cyclopropyl-N—[(S)-(4,4-difluorocyclohexyl)-[7-[[(3S*,5S*)-5-isopropyl-2-oxo-pyrrolidin-3-yl]methyl]imidazo[1,2-b]pyridazin-2-yl]methyl]-1,2,5-oxadiazole-3-carboxamide]
- pIC50 [1]: < 5.40
- pIC50 [2]: < 5.40

Structure (SMILES): O=C(N[C@H](c1cn2ncc(C[C@@H]3C(=O)NC[C@H]3C(F)(F)F)cc2n1)C1CCC(F)(F)CC1)c1nonc1C1CC1 (relative stereo) [Example 100, 4-Cyclopropyl-N—[(S)-(4,4-difluorocyclohexyl)-[7-[[(3S*,4S*)-2-oxo-4-(trifluoromethyl)pyrrolidin-3-yl]methyl]imidazo[1,2-b]pyridazin-2-yl]methyl]-1,2,5-oxadiazole-3-carboxamide]
- pIC50 [1]: < 5.40
- pIC50 [2]: 5.40 to 6.40
